Test results taken from PMC6396881 (European journal of medicinal chemistry, 2018).
Blank lines part the entries; values can stand above or below the compound they belong to.

How the values were obtained:
[1] = biological target: DYRK1A (Homo sapiens, UniProt Q13627); assay: KINOMEscan qPCR-based binding assay; settings: for fold improvement in DYRK1A binding (Kd) as compared to hit 3–1: ratio of Kd
[2] = test system: human β-cell; assay: Human β-cell proliferation assay; assay type: cell-based; settings: 5 μM, 96 hours, KI67 labeling of insulin-labeled cells, compared to vehicle-treated cells
[3] = test system: human β-cell; settings: cited from earlier work

Compound: O=c1[nH]c2ccc(C3=NN=C(NCc4cccnc4)SC3)cc2[nH]1 [3–13, N-(pyridine-3yl)methyl-5-(benzo[d]imidazol-2(3H)-one)-6H-1,3,4-thiadiazin-2-amine]
fold improvement in DYRK1A binding (Kd) as compared to hit 3–1 [1]: 5 fold

fold improvement in DYRK1A binding (Kd) as compared to hit 3–1 [1]: 4 fold
Compound: CC(NC1=NN=C(c2ccc3[nH]c(=O)[nH]c3c2)CS1)c1ccccc1 (centres unmarked) [3–16, N-(1-phenylethyl)-5-(benzo[d]imidazol-2(3H)-one)-6H-1,3,4-thiadiazin-2-amine]

Compound: O=c1[nH]c2ccc(C3=NN=C(NCc4ccc(F)cc4)SC3)cc2[nH]1 [Compound 3–5, N-(4-fluorobenzyl)-5-(benzo[d]imidazol-2(3H)-one)-6H-1,3,4-thiadiazin-2-amine]
human β-cell proliferation [2]: induced human β-cell proliferation

Compound: COc1ccc2c(c1)[nH]c1c(C)nccc12 [Harmine, reference compound]
% DMSO Ctrl, DYRK1A [1]: < 1%
fold induction in human pancreatic β-cell proliferation [3]: 10–15 fold
